Data taken from patent US20030135023A1, “Peptide structures useful for competitive modulation of dipeptidyl peptidase IV catalysis” (priority 2001, published 2003).
Square brackets hold non-standard residues; d marks the D form. Peptide text beside a SMILES is read from it. Tle = CC(C)(C)[C@H](N)C(=O)O

Target: purified porcine DP IV (Sus scrofa, UniProt P22411)
Assay: Determination of IC50-values, Gly-Pro-pNA cleavage by DP IV
Type: biochemical
Conditions: Gly-Pro-pNA 0.4 mM, HEPES pH 7.6, 30° C.; read-out: IC50
Procedure: 100 μl inhibitor stock solution were mixed with 100 μl buffer (HEPES pH 7.6) and 50 μl substrate (Gly-Pro-pNA, final concentration 0.4 mM) and preincubated at 30° C. Reaction was started by addition of 20 μl purified porcine DP IV. Formation of the product pNA was measured at 405 nm over 10 min using the HTS 7000 Plus plate reader (Perkin Elmer) and slopes were calculated. The final inhibitor concentrations ranged between 1 mM and 30 nM.
For calculation of IC50-values GraFit 4.0.13 (Erithacus Software) was used.

Sequence of purified porcine DP IV (P22411 whole entry): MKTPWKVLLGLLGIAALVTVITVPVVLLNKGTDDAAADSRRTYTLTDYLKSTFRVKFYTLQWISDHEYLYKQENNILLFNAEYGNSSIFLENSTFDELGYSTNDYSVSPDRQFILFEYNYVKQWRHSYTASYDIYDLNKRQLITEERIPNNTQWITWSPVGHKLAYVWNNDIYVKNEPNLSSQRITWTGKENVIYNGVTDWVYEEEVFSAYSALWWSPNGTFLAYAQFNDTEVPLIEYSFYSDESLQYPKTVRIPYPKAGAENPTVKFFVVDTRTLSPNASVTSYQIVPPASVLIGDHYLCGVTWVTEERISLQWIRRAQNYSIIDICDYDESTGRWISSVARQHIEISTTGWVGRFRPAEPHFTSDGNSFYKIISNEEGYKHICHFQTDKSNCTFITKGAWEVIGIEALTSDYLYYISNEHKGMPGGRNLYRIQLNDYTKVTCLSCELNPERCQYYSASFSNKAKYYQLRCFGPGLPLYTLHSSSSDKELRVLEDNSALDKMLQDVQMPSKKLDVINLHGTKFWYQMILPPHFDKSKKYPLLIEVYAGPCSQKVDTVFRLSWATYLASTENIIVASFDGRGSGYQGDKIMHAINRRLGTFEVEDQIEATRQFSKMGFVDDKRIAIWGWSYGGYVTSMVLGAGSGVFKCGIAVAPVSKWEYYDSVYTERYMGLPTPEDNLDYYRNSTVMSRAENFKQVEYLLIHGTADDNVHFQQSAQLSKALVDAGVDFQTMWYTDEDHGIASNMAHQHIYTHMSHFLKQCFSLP

IC50: 9.34 µM
SMILES: CC[C@H](C)[C@H](NC(=O)[C@@H]1CCCN1C(=O)[C@@H](N)C(C)(C)C)C(=O)O [t-butyl-Gly-Pro-Ile] (H-[Tle]-Pro-Ile-OH; N-terminus and C-terminus assumed)
